Laboratory results: patent US6815461B1, “Method of inhibiting retroviral integrase” (The University of North Carolina at Chapel Hill, priority 1994, dated 2004)
Where two headings read alike, the source gives them in different places.

Tests used:
HIV-1 [1] = test: Magic cell HIV-1 inhibition assay; format: cell-based, HIV-1 strain HXB2; conditions: Human immunodeficiency virus 1; Magic cells, infectious units with or without drug, 4 h pretreatment, read two days later
Procedure: Cell lines used were CEM cells, a human T-cell lymphona cell line, A. Kaplan et al, J. Virol. 67, 4050-5 (1993), and Magic cells, J. Kimpton et al, J. Virol. 66, 2232-2239 (1992). The CEM cells were grown in RPM1-1640 medium supplemented with 5% FCS. The Magic Cells, a HELA derivative, were grown in DMEM/H supplemented with 5% FCS, G418 ([…]) and Hygromycin ([…]). The HIV isolate was strain HXB2, originally from Lee Ratner in the laboratory of Robert Gallo at the National Institutes of Health.
The magic cell assay described by Kimpton et al., supra, was used as described. This assay identifies individual cells infected with HIV-1 by the expression of tat, which transactivates an endogenous copy of the HIV-1 LTR linked to the lac2 reporter gene after integration, inducing β-galactosidase expression when x-gal is added to the cell medium. Any cell with integrated HIV-1 will turn blue. Thus, this assay provides a convenient way to determine the effect of HIV inhibitors at any early step up through the expression of tat, including the inhibition of integration.
The magic cells are plated in twelve-well plates one day prior to infection. The standard assay involves infection with approximately 200 infectious units of HIV-1. This gives an approximately 20 to 1 ratio of signal to background and sufficient numbers of infectious events to quantitate dim effects. The cells are pretreated with drug for 4 hours prior to virus infection, and virus adsorption takes place for 1 hour. The cells are washed with plain medium, and then medium with inhibitor is placed back on the cells. Two days later the cells are fixed after integration with x-gal, the indicator reagent for β-galactosidase production. The number of β-galactosidase expressing cells are quantitated by light microscopy.
The results of comparisons of infectious units with or without various concentrations of the bis-benzimididazoles drugs in the magic cell assay are expressed as IC50 values and are compiled in Table 2 above. Note that the best anti-HIV compounds (B-D) were also the best integrase inhibitors, except for compound A, which could not be accurately measured due to its substrate aggregating properties.

HIV-1 integrase = target: T1, HIV-1 integrase (Human immunodeficiency virus type 1 group M subtype B, UniProt P04585); test: Integrase inhibition assay (cleavage and strand transfer of 32P-labelled HIV-1 U5/U3 oligonucleotide substrate); format: biochemical
T1 construct: using the integrase coding domain from the HXB2 clone of HIV-1 DNA; made in house; host or cells: E. coli
Procedure: Integrase was overproduced in E. coli from an inducible plasmid containing the integrase sequence under control of a lacI-regulated T7 polymerase using the integrase coding domain from the HXB2 clone of HIV-1 DNA (L. Ratner et al, AIDS Res. Hum. Retroviruses 3, 57-69 (1987)), pT7fll-IN. A one liter culture at an O.D. of 0.6 was induced by the addition of IPTG to 0.5 mM. After three hours, the cells were harvested by centrifugation and the pellets were stored at −70° C.
The integrase protein was purified by a modification of the method of Sherman and Fyfe (P. Sherman et al, Proc. Natl. Acad. Sci. USA 87, 5119-23 (1990)). The cells were lysed by thawing in a buffer (50 mM Tris-HCl pH 7.5, 5 mM dithiothreitol, 1 mM EDTA, 1 mg/ml lysozyme) on ice at 6 ml/g bacterial pellet for 30 minutes, and then incubating at 37° C. for 5 minutes. The lysate was centrifuged at 12,000×g for one hour. The pellets were resuspended in 50 mM Tris-HCl, pH 7.5, 1 mM dithiothreitol, 1 mM EDTA, 1 M NaCl (4 ml/g original bacteria). The homogenate was stirred for 30 minutes at 4° C. and recentrifuged for 30 minutes at 12,000×g.
The supernatant was made 0.8 M in ammonium sulfate by the slow addition of powder with stirring over a 30 minute period. The extract was then centrifuged to remove any precipitate and applied to a phenyl sepharose column. After a 50 ml wash with high salt buffer (50 mM Tris-HCl, 1 mM EDTA, 5 mM DTT, 2 M NaCl), the protein was eluted with a gradient from high salt to O salt buffer containing 10% (weight/vol) glycerol and further purified through a G75 Sephadex column to remove background nuclease. A one liter culture generates enough integrase activity to perform over a thousand drug inhibition assays.
Cleavage of specific sites is assessed as described in Sherman et al., supra, except that the assay buffer was the same as that reported by Chow et al, Science 255, 723-6 (1992). Single 20 mer oligonucleotides corresponding to either the U5 or U3 ends of HIV-1 are end-labeled with ^32P, annealed with its complement, purified, and used under the same conditions as described above for the endonuclease assay. Reaction products are denatured with formamide, electrophoresed through 20% denaturing polyacrylamide gels and visualized by autoradiography. Both cleavage and ligation activity can be assessed from one gel. To assess the ligation activity alone, “precleaved” substrate that had the −2 cleavage artificially produced by using a radiolabelled 18 mer oligonucleotide was also used for some experiments.
Integrase overproduced in E. coli was purified as described above in accordance with Sherman et al, supra, and used in drug inhibition assays. […] Dilutions of the inhibitor compounds described in Example 1 above were mixed with substrate before the addition of enzyme. The Assay was the same as described in Example 2 and used the substrate described in Example 2. Each assay was performed in duplicate. Radioactivity in bands on dried gels were quantitated with a Phosphor imager to assess drug effects on both the cleavage, nuclease, and ligation products. The IC50 values for integrase inhibition were calculated for both the cleaving and joining parts of the integrase reaction after determining the % inhibition of the control reaction for a series of drug concentrations. Compounds A, B, C, and D had similar effects on integrase activity. Compound A, however, caused aggregation of the substrate starting at relatively low concentrations (10 μM), complicating its assessment.

Magic cells [2] = test: Toxicity assay (XTT) on the cell lines used to measure virus infectivity; format: cell-based; conditions: human, 2 days
Procedure: (§1) Three different toxicity tests were performed on the cell lines used to measure virus infectivity.
(§2) The initial test for toxicity utilized the XTT Assay as described by Weislow et al, J. Natl. Cancer Inst. 81, 577-586 (1989). This is the standard assay used originally to measure cell toxicity by potential reverse transcriptase inhibitors. Briefly, cells were grown to cells/ml and drug dilutions were added to the medium. After two days incubation, XTT reagent is added and incubation is continued for 4 h at 37° C. Following incubation, the plates are read at 450 minus 650 nm (the 650 value is the backround value which is automatically subtracted) with controls of media+XTT reagent without cells, and cells+media without reagent. Also a control of cells+media+XTT reagent was run for each plate. Medium without phenol red was employed to minimize background color as the XTT reagent goes from colorless (unreduced) to orange (reduced). The XTT reagent was freshly prepared on the day of assay as follows: 1 mg/ml of XTT in […] phenazine methosulfate. The phenazine methosulfate solution was prepared ahead of time and stored at 4° C. in a dark bottle. The XTT reagent is added to the microtiter wells at 24 ul per 100 ul of medium. The O.D. was measured on a Vmax plate reader from Molecular Devices Co. with data reduction. Results are expressed as percent of untreated controls. The least toxic compounds were Compounds A, B, and F with toxicities values at 500 μM or greater.
(§3) The third test for cell toxicity assessed growth rate in the presence of the test compound versus a control culture. Magic cells were grown over a period of 15 days with or without various dilutions of test compound. Aliquots were removed every other day and the cells were counted in a hemocytometer. The results are set forth in FIG. 2 herein (see also Table 2 below).

[3] = as above; format: cell-based; conditions: human
Procedure: as §1, §2, §3

HIV-1 [4] = test: Standard reinfection assay of antiviral activity; format: cell-based; conditions: Human immunodeficiency virus 1
Procedure: In addition, the assessment of antiviral activity as measured by the standard reinfection assay was performed for compound B. The IC50 for compound B in this assay was 10-30 μM. This confirms that the Magic cell assay is suitable for screening potential integrase inhibitors with good antiviral activity.

Magic cells [5] = test: Plating efficiency test; format: cell-based; conditions: at the concentrations at which anti-viral effects were observed
Procedure: Next, a plating efficiency test measured the ability of the cell to grow after incubation with drug for a number of days. Magic cells were grown from an initial cell concentration of 0.8×104 with or without various concentrations of test compound for 6 days. Plating ability of the cells was assessed by plating dilutions of each culture on plastic. Colony forming units were determined after growth for two to four days by counting colonies after staining the plates. Each sample was plated in duplicate and the colony number averaged.
Another test of cellular effects by the compounds was a measure of plating efficiency of the cells after incubation with various concentrations of test agents. This will assess the actual killing of the cells by the drugs. The IC50 values are expected to be much higher in this test.

Magic cells [6] = test: Growth rate in the presence of test compound; format: cell-based
Procedure: as §3
The most sensitive test employed measurements of growth rates for the cells in the presence of the test compound. Although the anti-viral assay used was one that assessed early times of the viral life cycle, this test was carried out for 15 days, with counting of cell numbers in cultures performed every other day during this time.

[7] = Integrase Cleavage IC50, % cleavage of the substrate compared to control
[8] = Integrase Strand Transfer IC50, joining part of the integrase reaction

Row | Compound | IC50 (HIV-1 [1]) [µM] | IC50 (HIV-1 integrase; [7]) [µM] | IC50 (HIV-1 integrase; [8]) [µM] | Concentration at which aggregation of the substrate starts (HIV-1 integrase; integrase assay substrate) [µM] | XTT assay toxicity value (Magic cells [2]) [µM] | IC50 at 2 days [3] [µM] | IC50 at 2 days ([3]; Magic cells, read-out: Magic Cells Toxicity IC50) [µM] | IC50 (HIV-1 [4]) [µM] | Effect on Magic cell plating efficiency (Magic cells [5]) | Effect on growth rate of the cell line (Magic cells [6]; concentration that inhibited 50% of the viral integration events, up to two weeks) | Effect on growth rate of the cells (Magic cells [6]; higher concentrations, 15 days test)
1 | N=C(N)c1ccc2nc(C=Cc3nc4ccc(C(=N)N)cc4[nH]3)[nH]c2c1 [Compound A, 1,2-bis[5-amidino-2-benzimidazolyl]ethene] | 48 | 11 | 11.5 | 10 | ≥ 500 | > 500 |  |  |  |  | 
2 | N=C(N)c1ccc2nc(Cc3nc4ccc(C(=N)N)cc4[nH]3)[nH]c2c1 [D, bis[5-amidino-2-benzimidazolyl]methane] | 7 |  |  |  |  |  | 175 |  |  |  | 
3 | CC(C)NC(=N)c1ccc2nc(C=Cc3nc4ccc(C(=N)NC(C)C)cc4[nH]3)[nH]c2c1 [Compound B, 1,2-bis[5-isopropylamidino-2-benzimidazolyl]ethene] | 10 to 30 | 61 | 19 |  | ≥ 500 | 473 |  | 10 to 30 | no effect | no effect on the growth rate | did effect the growth rate
4 | N=C(N)c1ccc2[nH]c(Cc3nc4cc(C5=NCCN5)ccc4[nH]3)nc2c1 [E, (5-Amidino-2-benzimidazolyl)-(5′-(2-imidazolinyl)-2′-benzimidazolyl)methane] | 16 | > 100 | 122 |  |  | 65 |  |  |  |  | 
